Test system: Diaphorina citri Kuwayama
Assay type: in vivo
Conditions: solution at 1 μg/L in n-hexane applied to citrus leaves, compared to solvent n-hexane, 40 min

Compound | effect on Diaphorina citri Kuwayama selection preference
C=C1CC/C=C(\C)CC[C@@H]2[C@@H]1CC2(C)C [β-caryophyllene] | significant repulsive effect
(E)-β-farnesene | significant repulsive effect
